Experimental findings from patent US9822126B1, “Substituted 1,2,3-triazol-1-yl-methyl-2,3-dihydro-2-methyl-6-nitroimidazo[2,1-b]oxazoles as anti-mycobacterial agents and a process for the preparation thereof” (priority 2014, dated 2017) are described below.

Holding throughout (experiment): microbe, parasite or virus in culture
Format in all cases: cell-based

For assay [1], the system named is Rif^R: rifampicin resistant tuberculosis. The settings on record: Mycobacterium tuberculosis, read-out: MIC (Rif^R).
For assay [2], the system named is M. tuberculosis MDR (resistant to isoniazid and rifampicin). The settings on record: Mycobacterium tuberculosis.
The subject of assay [3] is M. tuberculosis XDR (resistant to isoniazid, rifampicin, amikacin and moxifloxacin). The conditions noted are these: Mycobacterium tuberculosis, 504 h, read-out: MIC XDR.
Where [4] appears, read: read-out: MIC against multi and extensive-drug resistant strains.

Converted amounts (≈) assume the structure as drawn. Where two headings read alike, the source gives them in different places.

Regarding `C[C@]1(Cn2cc(-c3ccc(OC(F)(F)F)cc3)nn2)Cn2cc([N+](=O)[O-])nc2O1` [I1, (R)-2-Methyl-6-nitro-2-((4-(4-(trifluoromethoxy)phenyl)-1H-1,2,3-triazol-1-yl)methyl)-2,3-dihydroimidazo[2,1-b]oxazole], the MIC in assay [1] came out at 2 µg/mL (≈ 4.87 µM); in assay [2] (504 h, read-out: MIC MDR), 2 µg/mL (≈ 4.87 µM); in assay [3] it was 1 µg/mL (≈ 2.44 µM).
Regarding `C[C@]1(Cn2cc(-c3ccc(C(F)(F)F)cc3)nn2)Cn2cc([N+](=O)[O-])nc2O1` [I2, (R)-2-Methyl-6-nitro-2-((4-(4-(trifluoromethyl)phenyl)-1H-1,2,3-triazol-1-yl)methyl)-2,3-dihydroimidazo[2,1-b]oxazole], the MIC in assay [1] stood at 4 µg/mL (≈ 10.1 µM); in assay [2] (504 h, read-out: MIC MDR), 2 µg/mL (≈ 5.07 µM); in assay [3], 2 µg/mL (≈ 5.07 µM).
`C[C@]1(Cn2cc(-c3ccc(F)cc3)nn2)Cn2cc([N+](=O)[O-])nc2O1` [I3, (R)-2-((4-(4-Fluorophenyl)-1H-1,2,3-triazol-1-yl)methyl)-2-methyl-6nitro-2,3-dihydro imidazo[2,1-b]oxazole]: the MIC in assay [1] is 2 µg/mL (≈ 5.81 µM); in assay [2] (504 h, read-out: MIC MDR) it was 2 µg/mL (≈ 5.81 µM); in assay [3], 2 µg/mL (≈ 5.81 µM).
Turning to `Cc1cc(-c2cn(C[C@@]3(C)Cn4cc([N+](=O)[O-])nc4O3)nn2)ccc1F` [I4, (R)-2-((4-(4-Fluoro-3-methylphenyl)-1H-1,2,3-triazol-1-yl)methyl)-2-methyl-6-nitro-2,3-dihydroimidazo[2,1-b]oxazole], the MIC is 1 µg/mL (≈ 2.79 µM) in assay [1]; 4 µg/mL (≈ 11.2 µM) in assay [2] (504 h, read-out: MIC MDR); 2 µg/mL (≈ 5.58 µM) in assay [3].
`C[C@]1(Cn2cc(-c3ccc(F)cc3F)nn2)Cn2cc([N+](=O)[O-])nc2O1` [I5, (R)-2-((4-(2,4-Difluorophenyl)-1H-1,2,3-triazol-1-yl)methyl)-2-methyl-6-nitro-2,3-dihydroimidazo[2,1-b]oxazole]: the MIC amounted to 4 µg/mL (≈ 11 µM) in assay [1]; 1 µg/mL (≈ 2.76 µM) in assay [2] (504 h, read-out: MIC MDR); 4 µg/mL (≈ 11 µM) in assay [3].
On to `C[C@]1(Cn2cc(-c3ccc(Oc4ccccc4)cc3)nn2)Cn2cc([N+](=O)[O-])nc2O1` [I6, (R)-2-Methyl-6-nitro-2-((4-(4-phenoxyphenyl)-1H-1,2,3-triazol-1-yl)methyl)-2,3-dihydroimidazo[2,1-b]oxazole], for which the MIC in assay [1] came to 1 µg/mL (≈ 2.39 µM); in assay [2] (504 h, read-out: MIC MDR), 1 µg/mL (≈ 2.39 µM); in assay [3], 1 µg/mL (≈ 2.39 µM).
For the compound `CCCCCc1cn(C[C@@]2(C)Cn3cc([N+](=O)[O-])nc3O2)nn1` [I7, (R)-2-[(4-Pentyl-1H-1,2,3-triazol-1-yl)methyl]-2,3-dihydro-2-methyl-6-nitroimidazo[2,1-b]oxazole], the MIC in assay [1] turned out to be 8 µg/mL (≈ 25 µM); in assay [2] (504 h, read-out: MIC MDR) it was 2 µg/mL (≈ 6.24 µM); in assay [3], 8 µg/mL (≈ 25 µM).
As for `C[C@]1(Cn2cc(COc3ccc(OC(F)(F)F)cc3)nn2)Cn2cc([N+](=O)[O-])nc2O1` [I8, (R)-2-Methyl-6-nitro-2-((4-((4-(trifluoromethoxy)phenoxy)methyl)-1H-1,2,3-triazol-1-yl)methyl)-2,3-dihydroimidazo[2,1-b]oxazole], the MIC in assay [1] worked out at 2 µg/mL (≈ 4.54 µM); in assay [2] (504 h, read-out: MIC MDR), 2 µg/mL (≈ 4.54 µM); in assay [3], 2 µg/mL (≈ 4.54 µM).
With `C[C@]1(Cn2cc(COc3ccc(C(F)(F)F)cc3)nn2)Cn2cc([N+](=O)[O-])nc2O1` [I9, (R)-2-Methyl-6-nitro-2-((4-((4-(trifluoromethyl)phenoxy)methyl)-1H-1,2,3-triazol-1-yl)methyl)-2,3-dihydroimidazo[2,1-b]oxazole], the MIC in assay [1] came out at 4 µg/mL (≈ 9.43 µM); in assay [2] (504 h, read-out: MIC MDR), 4 µg/mL (≈ 9.43 µM); in assay [3], 4 µg/mL (≈ 9.43 µM).
As for `C[C@]1(Cn2cc(COc3cccc(Cl)c3)nn2)Cn2cc([N+](=O)[O-])nc2O1` [I10, (R)-2-((4-((3-Chlorophenoxy)methyl)-1H-1,2,3-triazol-1-yl)methyl)-2-methyl-6-nitro-2,3-dihydroimidazo[2,1-b]oxazole], the MIC in assay [1] turned out to be 2 µg/mL (≈ 5.12 µM); in assay [2] (504 h, read-out: MIC MDR), 2 µg/mL (≈ 5.12 µM); in assay [3] it was 4 µg/mL (≈ 10.2 µM).
Turning to `C[C@]1(Cn2cc(COc3ccc(Br)cc3)nn2)Cn2cc([N+](=O)[O-])nc2O1` [I11, (R)-2-((4-((4-Bromophenoxy)methyl)-1H-1,2,3-triazol-1-yl)methyl)-2-methyl-6-nitro-2,3-dihydroimidazo[2,1-b]oxazole], the MIC is 0.12 µg/mL (≈ 0.276 µM) in assay [1]; 0.12 µg/mL (≈ 0.276 µM) in assay [2] (504 h, read-out: MIC MDR); 0.12 µg/mL (≈ 0.276 µM) in assay [2] (setting [4]); below 1 µg/mL in assay [2] (read-out: MIC value); 0.25 µg/mL (≈ 0.574 µM) in assay [3].
`Cc1ccc(OCc2cn(C[C@@]3(C)Cn4cc([N+](=O)[O-])nc4O3)nn2)cc1` [I12, (R)-2-Methyl-6-nitro-2-((4-((p-tolyloxy)methyl)-1H-1,2,3-triazol-1-yl)methyl)-2,3-dihydroimidazo[2,1-b]oxazole]: the MIC came out at 8 µg/mL (≈ 21.6 µM) in assay [1]; 2 µg/mL (≈ 5.4 µM) in assay [2] (504 h, read-out: MIC MDR); 8 µg/mL (≈ 21.6 µM) in assay [3].
Regarding `Cc1cccc(OCc2cn(C[C@@]3(C)Cn4cc([N+](=O)[O-])nc4O3)nn2)c1` [I13, (R)-2-Methyl-6-nitro-2-((4-((m-tolyloxy)methyl)-1H-1,2,3-triazol-1-yl)methyl)-2,3-dihydroimidazo[2,1-b]oxazole], the MIC in assay [1] came to 1 µg/mL (≈ 2.7 µM); in assay [2] (504 h, read-out: MIC MDR) it was 1 µg/mL (≈ 2.7 µM); in assay [3], 2 µg/mL (≈ 5.4 µM).
Consider `Cc1ccccc1OCc1cn(C[C@@]2(C)Cn3cc([N+](=O)[O-])nc3O2)nn1` [I14, (R)-2-Methyl-6-nitro-2-((4-((o-tolyloxy)methyl)-1H-1,2,3-triazol-1-yl)methyl)-2,3-dihydroimidazo[2,1-b]oxazole], for which the MIC came to 1 µg/mL (≈ 2.7 µM) in assay [1]; 1 µg/mL (≈ 2.7 µM) in assay [2] (504 h, read-out: MIC MDR); 1 µg/mL (≈ 2.7 µM) in assay [3].
Turning to `CCc1ccc(OCc2cn(C[C@@]3(C)Cn4cc([N+](=O)[O-])nc4O3)nn2)cc1` [I15, (R)-2-((4-((4-Ethylphenoxy)methyl)-1H-1,2,3-triazol-1-yl)methyl)-2-methyl-6-nitro-2,3-dihydroimidazo[2,1-b]oxazole], the MIC worked out at 4 µg/mL (≈ 10.4 µM) in assay [1]; 2 µg/mL (≈ 5.2 µM) in assay [2] (504 h, read-out: MIC MDR); 4 µg/mL (≈ 10.4 µM) in assay [3].
As to `C[C@]1(Cn2cc(COc3cccc(F)c3)nn2)Cn2cc([N+](=O)[O-])nc2O1` [I16, (R)-2-((4-((3-Fluorophenoxy)methyl)-1H-1,2,3-triazol-1-yl)methyl)-2-methyl-6-nitro-2,3-dihydroimidazo[2,1-b]oxazole], the MIC in assay [1] was 2 µg/mL (≈ 5.34 µM); in assay [2] (504 h, read-out: MIC MDR) it was 2 µg/mL (≈ 5.34 µM); in assay [3], 2 µg/mL (≈ 5.34 µM).
`C[C@]1(Cn2cc(COc3ccccc3F)nn2)Cn2cc([N+](=O)[O-])nc2O1` [I17, (R)-2-((4-((2-Fluorophenoxy)methyl)-1H-1,2,3-triazol-1-yl)methyl)-2-methyl-6-nitro-2,3-dihydroimidazo[2,1-b]oxazole]: the MIC in assay [1] is 1 µg/mL (≈ 2.67 µM); in assay [2] (504 h, read-out: MIC MDR) it was 0.5 µg/mL (≈ 1.34 µM); in assay [2] (setting [4]) it was 0.5 µg/mL (≈ 1.34 µM); in assay [2] (read-out: MIC value), below 1 µg/mL; in assay [3], 1 µg/mL (≈ 2.67 µM).
Consider `CC(C)c1ccc(OCc2cn(C[C@@]3(C)Cn4cc([N+](=O)[O-])nc4O3)nn2)cc1` [I18, (R)-2-((4-((4-Isopropylphenoxy)methyl)-1H-1,2,3-triazol-1-yl)methyl)-2-methyl-6-nitro-2,3-dihydroimidazo[2,1-b]oxazole], for which the MIC in assay [1] came out at 2 µg/mL (≈ 5.02 µM); in assay [2] (504 h, read-out: MIC MDR), 1 µg/mL (≈ 2.51 µM); in assay [3], 4 µg/mL (≈ 10 µM).
`C[C@]1(Cn2cc(COc3ccccn3)nn2)Cn2cc([N+](=O)[O-])nc2O1` [I19, (R)-2-Methyl-6-nitro-2-((4-((pyridin-2-yloxy)methyl)-1H-1,2,3-triazol-1-yl)methyl)-2,3-dihydroimidazo[2,1-b]oxazole]: the MIC was 0.5 µg/mL (≈ 1.4 µM) in assay [1]; 0.25 µg/mL (≈ 0.7 µM) in assay [2] (504 h, read-out: MIC MDR); below 1 µg/mL in assay [2] (read-out: MIC value); 0.5 µg/mL (≈ 1.4 µM) in assay [3].
For the compound `Cc1ccc(SCc2cn(C[C@@]3(C)Cn4cc([N+](=O)[O-])nc4O3)nn2)cc1` [I20, (R)-2-Methyl-6-nitro-2-((4-((p-tolylthio)methyl)-1H-1,2,3-triazol-1-yl)methyl)-2,3-dihydroimidazo[2,1-b]oxazole], the MIC in assay [1] is 0.25 µg/mL (≈ 0.647 µM); in assay [2] (504 h, read-out: MIC MDR) it was 0.5 µg/mL (≈ 1.29 µM); in assay [2] (read-out: MIC value) it was below 1 µg/mL; in assay [3], 2 µg/mL (≈ 5.18 µM).
As for `Cc1ccc(OCCc2cn(C[C@@]3(C)Cn4cc([N+](=O)[O-])nc4O3)nn2)cc1` [I21, (R)-2-Methyl-6-nitro-2-((4-(2-(p-tolyloxy)ethyl)-1H-1,2,3-triazol-1-yl)methyl)-2,3-dihydroimidazo[2,1-b]oxazole], the MIC in assay [1] is 1 µg/mL (≈ 2.6 µM); in assay [2] (504 h, read-out: MIC MDR) it was 0.25 µg/mL (≈ 0.65 µM); in assay [2] (setting [4]), 0.25 µg/mL (≈ 0.65 µM); in assay [2] (read-out: MIC value), below 1 µg/mL; in assay [3] it was 0.25 µg/mL (≈ 0.65 µM).
Turning to `C[C@]1(Cn2cc(CN3CCOCC3)nn2)Cn2cc([N+](=O)[O-])nc2O1` [I22, (R)-2-Methyl-2-((4-(morpholinomethyl)-1H-1,2,3-triazol-1-yl)methyl)-6-nitro-2,3-dihydroimidazo[2,1-b]oxazole], the MIC in assay [1] was found to be 2 µg/mL (≈ 5.72 µM); in assay [2] (504 h, read-out: MIC MDR) it was 2 µg/mL (≈ 5.72 µM); in assay [3], 2 µg/mL (≈ 5.72 µM).
